Measured values taken from the supplement of paper PMC8882468.
Where “and” joins values, the source holds several entries; their conditions need not be identical. Equal values may be shown once.

Legend:
Test in all cases: CTG-3D luminescence at 96 h relative to day-0 seeding control (ratio to day 0); higher = more growth / less cytotoxicity; PDxO 3D drug screen (set 2), 96 h, CTG-3D normalised to day-0 seeding control.
[1] = test system: HCI-010 (organoid from a breast cancer xenograft)
[2] = test system: MDA-MB-231
[3] = test system: HCI-017.E2 (organoid from an ER-positive breast cancer xenograft)

O=C(c1cc(Cc2n[nH]c(=O)c3ccccc23)ccc1F)N1CCN(C(=O)C2CC2)CC1 [olaparib]
CTG-3D luminescence at 96 h
Conditions | 12.5 pM | 0.00025 µM | 0.005 µM | 0.1 µM | 1 µM | 10 µM | 100 µM | 625 fM
[1], days in culture: 79 | – | 1.79 | 2.08 | 2.11 | 1.98 | 1.43 | 0.445 | 2.19
[1], days in culture: 86 | – | 2.5 | 2.59 | 2.35 | 2.34 | 1.68 | 0.309 | 2.43
[1], days in culture: 102 | – | 1.27 | 1.15 | 1.36 | 1.26 | 0.657 | 0.0517 | 1.12
[1], days in culture: 164 | – | 1.56 | 1.64 | 1.57 | 1.54 | 0.88 | 0.272 | 1.61
[3], days in culture: 85 | 2.36 | 1.92 | 1.89 | 2.06 | 1.56 | 0.709 | 0.204 | 2.56

CTG-3D luminescence at 96 h
Conditions | 12.5 pM | 0.00025 µM | 0.005 µM | 0.1 µM | 1 µM | 10 µM | 100 µM | 625 fM
[2] | 5.57 and 5.09 | 5.62 and 5.21 | 5.57 and 5.41 | 5.38 and 5.09 | 5.15 and 5.11 | 4.31 and 4.38 | 3.27 and 2.33 | 5.41 and 5.09
[3] | 2.27 | 2.61 | 2.34 | 2.76 | 2.06 | 1.12 | 0.259 | 2.59
